{"source": "patent US20110245340A1", "about": "“Screening Method for Identifying Patients at Risk of Adverse Hepatologic Events” (priority 2009, published 2011)", "key": {"[1]": {"assay": "Large clinical study (more than 6000 pts, 2 year average exposure) in patients with pre-existing coronary artery disease", "format": "in vivo"}, "[2]": {"assay": "Hepatic events / ALT elevations in combined dataset of diabetes mellitus patients, before use of the risk identification tool", "format": "in vivo, human", "conditions": "for Number of Patients ALT 3X to ≦ 5X ULN With TBL ≦ 2X ULN: diabetes patients; for Percent of Hepatic Events: of 24 events", "protocol": "Analyses were conducted to identify potential risk factors for drug-induced liver toxicity in clinical studies of the monosuccinic acid ester of probucol (AGI-1067). AGI-1067 represents a new class of therapies targeting certain chronic diseases such as type II diabetes mellitus and atherosclerosis. AGI-1067 functions both as a direct antioxidant and an inducer of endogenous, antioxidant processes such as hemeoxygenase-1 and thioredoxin.\nThere were 36 patients who had peak elevations of ATL between 3× and ≦5× ULN in the combined dataset of diabetes mellitus patients. […] ALT levels therefore appear to have limited value in assessing potential for hepatotoxicity.\nThere were 24 diabetes patients in the combined dataset who had hepatic events as using a criteria of either ALT >5× ULN plus TBL <2× ULN or ALT >3× ULN plus TBL >2× ULN criteria. At randomization, 57% of the patients were in the AGI-1067 arm and 43% were in the placebo arm resulting in an AGI-1067 to placebo ratio of 1.3. Of the 24 hepatic events, 17 occurred in AGI-1067 treated patients and 7 occurred in placebo treated patients. […]"}, "[3]": {"assay": "Hepatic events in combined dataset of type 2 diabetes mellitus patients using the risk identification tool (exclusion by ApoA1 > ULN or ALT > 2X ULN)", "format": "in vivo, human", "conditions": "for Percent of Hepatic Events: of 14 events", "text": "As noted in Example 2, hepatic events in the sample populations were distributed 71% (17/24) for AGI-1067 treated patients and 29% (7/24) for patients receiving placebo resulting in an AGI-1067 to placebo ratio of 2.4.\nThere were 14 patients in the combined dataset who had hepatic events using the ALT >5× ULN plus TBL <2× ULN or ALT >3× ULN plus TBL >2× ULN criteria. As noted in Example 2, at randomization the ratio of AGI-1067 to placebo patients was 1.3, the same value as the randomization ratio for AGI-1067 compared to placebo.\nWhen patients with elevated ApoA1 levels or ALT levels of greater than 2.0 times ULN were excluded, 10 hepatic events were eliminated. Of these, 90% were in the AGI-1067 treatment arm. Of the remaining 14 hepatic events, 8 were in AGI-1067 treated patients while 6 were in placebo treated patients. These hepatic events were distributed 57% (8/14) for AGI-1067 patients and 43% (6/14) for patients receiving placebo.\nTable 4 summarizes the impact of the exclusionary criteria (primarily ApoA1 elevation) on the number, frequency distribution and ratio of hepatic events for the AGI-1067 and placebo groups in the 3270 type 2 diabetes mellitus patients contained in the datasets.\nALT >2× ULN could also be used as a secondary indicator for exclusion of patients."}, "[4]": {"conditions": "in vivo; cited from earlier work"}, "[5]": {"conditions": "before use of the risk identification tool, 75 mg"}, "[6]": {"conditions": "before use of the risk identification tool, 150 mg"}, "[7]": {"conditions": "before use of the risk identification tool, 300 mg"}, "[8]": {"conditions": "before use of the risk identification tool, AGI-1067 all doses"}, "[9]": {"conditions": "using the risk identification tool, 75 mg"}, "[10]": {"conditions": "using the risk identification tool, 150 mg"}, "[11]": {"conditions": "using the risk identification tool, 300 mg"}, "[12]": {"conditions": "using the risk identification tool, AGI-1067 all doses"}}}
{"molecule": "CC(C)(Sc1cc(C(C)(C)C)c(O)c(C(C)(C)C)c1)Sc1cc(C(C)(C)C)c(OC(=O)CCC(=O)O)c(C(C)(C)C)c1", "note": "[AGI-1067, monosuccinic acid ester of probucol]", "values": [{"measurement": "Number of patients demonstrating elevated ALT and bilirubin", "setting": "[1]; of 3078 patients randomized to AGI-1067, four in the placebo arm", "result": "eight"}, {"measurement": "HbA1c levels", "setting": "[1]; subset of patients with type 2 diabetes mellitus", "result": "lower HbA1c levels"}, {"measurement": "Hard cardiovascular endpoints (composite of cardiovascular death, non-fatal MI and non-fatal stroke)", "setting": "[1]; well-treated patients with pre-existing coronary artery disease", "result": "reduce hard cardiovascular endpoints"}, {"measurement": "Number of Patients ALT 3X to ≦ 5X ULN With TBL ≦ 2X ULN", "setting": "[2]; 75 mg", "result": 3}, {"measurement": "Percent of ALT Elevations", "setting": "[2]; 75 mg, share of 36 patients", "result": 8, "unit": "%"}, {"measurement": "Number of Patients ALT 3X to ≦ 5X ULN With TBL ≦ 2X ULN", "setting": "[2]; 150 mg", "result": 4}, {"measurement": "Percent of ALT Elevations", "setting": "[2]; 150 mg, share of 36 patients", "result": 11, "unit": "%"}, {"measurement": "Number of Patients ALT 3X to ≦ 5X ULN With TBL ≦ 2X ULN", "setting": "[2]; 300 mg", "result": 10}, {"measurement": "Percent of ALT Elevations", "setting": "[2]; 300 mg, share of 36 patients", "result": 28, "unit": "%"}, {"measurement": "Number of Patients ALT 3X to ≦ 5X ULN With TBL ≦ 2X ULN", "setting": "[2]; AGI-1067 all doses", "result": 17}, {"measurement": "Percent of ALT Elevations", "setting": "[2]; AGI-1067 all doses, share of 36 patients with ALT 3X to ≦5X ULN", "result": 47, "unit": "%"}, {"measurement": "Ratio 1067/Placebo Hepatic Events", "setting": "[2]; before use of the risk identification tool", "result": 2.4}, {"measurement": "Number of Hepatic Events ALT > 3X ULN Plus TBL > 2X ULN", "setting": "[2]; [5]", "result": 0}, {"measurement": "Number of Hepatic Events ALT > 5X ULN With TBL ≦ 2X ULN", "setting": "[2]; [5]", "result": 4}, {"measurement": "Number of Hepatic Events Total", "setting": "[2]; [5]", "result": 4}, {"measurement": "Percent of Hepatic Events", "setting": "[2]; [5]", "result": 17, "unit": "%"}, {"measurement": "Number of Hepatic Events ALT > 3X ULN Plus TBL > 2X ULN", "setting": "[2]; [6]", "result": 0}, {"measurement": "Number of Hepatic Events ALT > 5X ULN With TBL ≦ 2X ULN", "setting": "[2]; [6]", "result": 2}, {"measurement": "Number of Hepatic Events Total", "setting": "[2]; [6]", "result": 2}, {"measurement": "Percent of Hepatic Events", "setting": "[2]; [6]", "result": 8, "unit": "%"}, {"measurement": "Number of Hepatic Events ALT > 3X ULN Plus TBL > 2X ULN", "setting": "[2]; [7]", "result": 4}, {"measurement": "Number of Hepatic Events ALT > 5X ULN With TBL ≦ 2X ULN", "setting": "[2]; [7]", "result": 7}, {"measurement": "Number of Hepatic Events Total", "setting": "[2]; [7]", "result": 11}, {"measurement": "Percent of Hepatic Events", "setting": "[2]; [7]", "result": 46, "unit": "%"}, {"measurement": "Number of Hepatic Events ALT > 3X ULN Plus TBL > 2X ULN", "setting": "[2]; [8]", "result": 4}, {"measurement": "Number of Hepatic Events ALT > 5X ULN With TBL ≦ 2X ULN", "setting": "[2]; [8]", "result": 13}, {"measurement": "Number of Hepatic Events Total", "setting": "[2]; [8]", "result": 17}, {"measurement": "Percent of Hepatic Events", "setting": "[2]; [8]", "result": 71, "unit": "%"}, {"measurement": "Incidence of ALT elevations 3X to ≦5X ULN versus placebo", "setting": "[2]; diabetes mellitus patients", "result": "comparable"}, {"measurement": "Incidence of hepatic events after application of the exclusionary criteria", "setting": "[3]; 8/1851 patients", "result": 0.4, "unit": "%"}, {"measurement": "Decrease (↓) of total number of hepatic events by using the risk identification tool", "setting": "[3]; AGI-1067 all doses, versus before use of the tool", "result": 53, "unit": "%"}, {"measurement": "Excluded hepatic events relative to placebo patients using Baseline ApoA1 as predictive biomarker", "setting": "[3]; Baseline ApoA1", "result": "seven times more excluded hepatic events"}, {"measurement": "Number of Hepatic Events Excluded", "setting": "[3]; Totals of all biomarkers", "result": 9}, {"measurement": "Number of Hepatic Events Excluded", "setting": "[3]; biomarker Apo A1 > 165 mg/dl", "result": 7}, {"measurement": "Number of Hepatic Events Excluded", "setting": "[3]; biomarker Baseline ALT > 2X ULN", "result": 1}, {"measurement": "Number of Hepatic Events Excluded", "setting": "[3]; biomarker Month 1 ALT > 2X ULN", "result": 1}, {"measurement": "Share of the 10 eliminated hepatic events that were in the AGI-1067 treatment arm", "setting": "[3]; exclusion of elevated ApoA1 or ALT > 2.0 times ULN", "result": 90, "unit": "%"}, {"measurement": "Number of hepatic events versus placebo arm after excluding patients with ApoA1 above ULN (165 mg/dl) before drug", "setting": "[3]; human, in vivo", "result": "achieved parity"}, {"measurement": "Ratio 1067/Placebo Hepatic Events", "setting": "[3]; using the risk identification tool", "result": 1.3}, {"measurement": "Number of Hepatic Events ALT > 3X ULN Plus TBL > 2X ULN", "setting": "[3]; [9]", "result": 0}, {"measurement": "Number of Hepatic Events ALT > 5X ULN With TBL ≦ 2X ULN", "setting": "[3]; [9]", "result": 2}, {"measurement": "Number of Hepatic Events Total", "setting": "[3]; [9]", "result": 2}, {"measurement": "Percent of Hepatic Events", "setting": "[3]; [9]", "result": 14, "unit": "%"}, {"measurement": "Number of Hepatic Events ALT > 3X ULN Plus TBL > 2X ULN", "setting": "[3]; [10]", "result": 0}, {"measurement": "Number of Hepatic Events ALT > 5X ULN With TBL ≦ 2X ULN", "setting": "[3]; [10]", "result": 1}, {"measurement": "Number of Hepatic Events Total", "setting": "[3]; [10]", "result": 1}, {"measurement": "Percent of Hepatic Events", "setting": "[3]; [10]", "result": 7, "unit": "%"}, {"measurement": "Number of Hepatic Events ALT > 3X ULN Plus TBL > 2X ULN", "setting": "[3]; [11]", "result": 2}, {"measurement": "Number of Hepatic Events ALT > 5X ULN With TBL ≦ 2X ULN", "setting": "[3]; [11]", "result": 3}, {"measurement": "Number of Hepatic Events Total", "setting": "[3]; [11]", "result": 5}, {"measurement": "Percent of Hepatic Events", "setting": "[3]; [11]", "result": 36, "unit": "%"}, {"measurement": "Number of Hepatic Events ALT > 3X ULN Plus TBL > 2X ULN", "setting": "[3]; [12]", "result": 2}, {"measurement": "Number of Hepatic Events ALT > 5X ULN With TBL ≦ 2X ULN", "setting": "[3]; [12]", "result": 6}, {"measurement": "Number of Hepatic Events Total", "setting": "[3]; [12]", "result": 8}, {"measurement": "Percent of Hepatic Events", "setting": "[3]; [12]", "result": 57, "unit": "%"}]}
{"molecule": "NNC(=O)c1ccncc1", "note": "[isoniazid]", "values": [{"measurement": "Serious hepatotoxicity, share of recipients", "setting": "[4]", "result": "about 0.1%"}]}
